{"source": "patent US20060276537A1", "about": "“Use of ladostigil for the treatment of multiple sclerosis” (priority 2005, published 2006)", "key": {"[1]": {"system": "relapsing remitting EAE in 129/SvEv mice", "assay": "MOG-induced relapsing remitting EAE in 129/SvEv mice", "format": "in vivo", "description": "This experiment is conducted to evaluate whether ladostigil tartrate is effective in alleviating EAE. EAE is induced in mice by the administration of myelin oligodendrocyte glycoprotein (MOG). Injection of MOG into 129/SvEv mice produces a relapsing remitting EAE (murine model of relapsing remitting multiple sclerosis).\nOne week before MOG immunization, 129/SvEv mice receive a sub-optimal dose of ladostigil tartrate or saline vehicle. Over a period of 1-2 months following MOG immunization, clinical scores are monitored by weighing animals on a daily basis and grading the severity of EAE. In addition to clinical evaluation, groups of mice are sacrificed at weekly intervals for routine histological examination (hematoxylin-eosin and luxol fast blue for evidence of inflammation and demyelination, respectively). Also, cellular infiltrates are examined for CD3 (T lymphocytes), CD56 (natural killer cells) and CD19 (B cell immunohistochemistry). Loss of neurons and oligodendrocytes is assessed using immunohistochemistry for NeuN and glutathione-S-transferase pi isoform, respectively. Furthermore, axonal integrity is examined using immunohistochemistry for β-amyloid precursor protein or neurofilament, and by Bielchowsky silver stains. The neuropathological assessments are focused on the optic nerve, lumbar/sacral cord and brain stem."}, "[2]": {"system": "chronic progressive EAE induced by pMOG35-55 in C57BL/6 mice", "assay": "MOG-induced chronic progressive EAE in C57BL/6 mice, clinical scoring", "format": "in vivo", "details": "gavage once daily from day 0; for % Inhibition: vs control group mean score", "description": "MOG (Myelin oligodendrocyte glycoprotein) is a member of the immunoglobulin superfamily expressed exclusively in CNS myelin. It is one of the most encephalitogenic proteins and is widely used to induce EAE in different rodent strains. In C57BL/6 mice, immunization with the MOG peptide pMOG35-55 in CFA induces chronic progressive EAE. Ladostigil was tested in this model in order to assess its ability to inhibit the disease.\nEAE was induced by subcutaneous injection of encephalitogenic emulsion at a volume of 0.2 ml/mouse in the right flank. On the day of induction, pertussis toxin was injected intraperitoneally at a volume dose of 0.2 ml/mouse. The injection of the pertussis toxin was repeated after 48 hours. At the end of the experiment, 6-7 brains from control and the ladostigil groups were dissected and frozen at −70° C. for CHE (cholinesterase) determination and 6-7 brains were dissected and frozen for MAO (monoamine oxidase) determination. Before sacrifice, blood for ChE determination was taken on heparine, hemolysed 1/20 in 10 mM cold phosphate buffer pH=6.0 and stored at −70° C. until the assay.\n90 female C57Bl/6 mice 8-10 weeks old obtained from Harlan animal breeding center were used in the study. Mice were allocated randomly into 6 groups:\nBoth compounds were administered by gavage once daily during the whole experiment (30 days) at a volume of 0.2 ml/mouse.\nThe mice were observed daily from the 10th day post-EAE induction and the EAE clinical signs were scored. The scores were recorded on observation cards according to the grades described in Table 5:\nThe number of sick animals (animals with a score of ≧1 at any point) in each group was summed.\nThe incidence of disease and the % activity were calculated as follows: [formula] [formula] [formula]\nThe maximal scores of all mice in each group were summed.\nThe mean maximal score and the % activity of the group were calculated as follows: [formula] [formula] [formula]\nThe individual scores (IMS) of each of the mice during the observation period were summed (score 6 will be counted forward).\nThe GMS of the group and its % activity were calculated as follows: [formula] [formula] [formula]\nTheir dates of onset were calculated as day of termination +1."}, "[3]": {"details": "sub-optimal dose from one week before MOG immunization, vs saline vehicle"}}, "data": [{"smiles": "C#CCN[C@@H]1CCc2ccc(OC(=O)N(C)CC)cc21", "note": "[Ladostigil, R(+)-6-(N-methyl,N-ethyl-carbamoyloxy)-N′-propargyl-1-aminoindan]", "values": [{"measurement": "incidence and severity of EAE", "setting": "[1]; compared to control", "result": "decreases both the incidence and severity of EAE"}, {"measurement": "area under the curve (clinical score)", "setting": "[1]; [3]", "result": "smaller area under the curve"}, {"measurement": "clinical score", "setting": "[1]; [3]", "result": "lower clinical score"}, {"measurement": "Group Mean Score", "setting": "[2]; ladostigil salt 10.2 mg/kg", "result": "2.75 ± 1.3"}, {"measurement": "Incidence", "setting": "[2]; ladostigil salt 10.2 mg/kg", "result": "15/15"}, {"measurement": "Mean Maximal Score", "setting": "[2]; ladostigil salt 10.2 mg/kg", "result": "4.33 ± 1.1"}, {"measurement": "Mean Onset", "setting": "[2]; ladostigil salt 10.2 mg/kg", "result": "12.0 ± 2.4", "unit": "days"}, {"measurement": "Mortality", "setting": "[2]; ladostigil salt 10.2 mg/kg", "result": "2/15"}, {"measurement": "% Inhibition", "setting": "[2]; ladostigil salt 10.2 mg/kg", "result": 9.5, "unit": "%"}, {"measurement": "Group Mean Score", "setting": "[2]; ladostigil salt 25.5 mg/kg", "result": "3.08 ± 1.4"}, {"measurement": "Incidence", "setting": "[2]; ladostigil salt 25.5 mg/kg", "result": "15/15"}, {"measurement": "Mean Disease Duration", "setting": "[2]; ladostigil salt 25.5 mg/kg", "result": "35.3 ± 8.8", "unit": "days"}, {"measurement": "Mean Maximal Score", "setting": "[2]; ladostigil salt 25.5 mg/kg", "result": "4.33 ± 1.0"}, {"measurement": "Mean Onset", "setting": "[2]; ladostigil salt 25.5 mg/kg", "result": "11.6 ± 2.1", "unit": "days"}, {"measurement": "Mortality", "setting": "[2]; ladostigil salt 25.5 mg/kg", "result": "3/15"}, {"measurement": "% Inhibition", "setting": "[2]; ladostigil salt 25.5 mg/kg", "result": "−1.3", "unit": "%"}, {"measurement": "Group Mean Score", "setting": "[2]; ladostigil salt 51 mg/kg", "result": "2.26 ± 1.1"}, {"measurement": "Incidence", "setting": "[2]; ladostigil salt 51 mg/kg", "result": "15/15"}, {"measurement": "Mean Disease Duration", "setting": "[2]; ladostigil salt 51 mg/kg", "result": "31.3 ± 13.2", "unit": "days"}, {"measurement": "Mean Maximal Score", "setting": "[2]; ladostigil salt 51 mg/kg", "result": "3.83 ± 1.1"}, {"measurement": "Mean Onset", "setting": "[2]; ladostigil salt 51 mg/kg", "result": "11.4 ± 3.1", "unit": "days"}, {"measurement": "Mortality", "setting": "[2]; ladostigil salt 51 mg/kg", "result": "1/15"}, {"measurement": "% Inhibition", "setting": "[2]; ladostigil salt 51 mg/kg", "result": 25.7, "unit": "%"}, {"measurement": "Incidence", "setting": "[2]; ladostigil salt 70.1 mg/kg", "result": "15/15"}, {"measurement": "Mean Maximal Score", "setting": "[2]; ladostigil salt 70.1 mg/kg", "result": "3.73 ± 1.0"}, {"measurement": "Mean Onset", "setting": "[2]; ladostigil salt 70.1 mg/kg", "result": "11.6 ± 2.3", "unit": "days"}, {"measurement": "Mortality", "setting": "[2]; ladostigil salt 70.1 mg/kg", "result": "1/15"}, {"measurement": "% Inhibition", "setting": "[2]; ladostigil salt 70.1 mg/kg", "result": 33.2, "unit": "%"}]}]}
